Experimental data taken from patent US20090209494A1, “21-DEOXYMACBECIN ANALOGUES USEFUL AS ANTITUMOR AGENTS” (priority 2005, published 2009).
pKd: −log10 of the molar value. Values after ≈ are worked out from the molar mass of the structure shown. Like-named read-outs stand apart in the source and are kept apart here.

Experiments:
[1] = system: DU145; experiment: in vitro anticancer activity in combination with compound 14, modified propidium iodide assay; assay type: cell-based, human
Method: Standard agents were applied at 10 concentrations in sextuplicates in half-log increments. […] Growth inhibition is expressed as treated/control×100 (% T/C), and IC70 values for each combination were determined by plotting compound concentration versus cell viability.
In vitro evaluation of 14 for anticancer activity when combined with standard cytotoxic agents against the tumour cell line DU145 in a monolayer proliferation assay was carried out as described in the general methods using a modified propidium iodide assay.

[2] = system: 394NL; experiment: monolayer proliferation assay (modified propidium iodide assay), 394NL; assay type: cell-based, human; conditions: 4 days exposure, median of duplicate experiments
Method: (§1) In vitro evaluation of compounds for anticancer activity in a panel of 38 human tumour cell lines in a monolayer proliferation assay was carried out at the Oncotest Testing Facility, Institute for Experimental Oncology, Oncotest GmbH, Freiburg.
(§2) The Oncotest cell lines are established from human tumor xenografts as described by Roth et al., (1999). The origin of the donor xenografts was described by Fiebig et al., (1999). Other cell lines are either obtained from the NCl (H460, SF-268, OVCAR-3, DU145, MDA-MB-231, MDA-MB-468) or purchased from DSMZ, Braunschweig, Germany (LNCAP).
(§3) All cell lines, unless otherwise specified, were grown at 37° C. in a humidified atmosphere (95% air, 5% CO2) in a ‘ready-mix’ medium containing RPMI 1640 medium, 10% fetal calf serum, and 0.1 mg/mL gentamicin (PAA, Cölbe, Germany).
(§4) A modified propidium iodide assay was used to assess the effects of the test compound(s) on the growth of human tumour cell lines (Dengler et al., (1995)).
(§5) Briefly, cells were harvested from exponential phase cultures by trypsinization, counted and plated in 96 well flat-bottomed microtitre plates at a cell density dependent on the cell line (5-10.000 viable cells/well). After 24 h recovery to allow the cells to resume exponential growth, 0.010 mL of culture medium (6 control wells per plate) or culture medium containing a 21-deoxymacbecin analogue was added to the wells. Each concentration was plated in triplicate. […] Following 4 days of continuous exposure, cell culture medium with or without test compound was replaced by 0.2 mL of an aqueous propidium iodide (PI) solution (7 mg/L). To measure the proportion of living cells, cells were permeabilized by freezing the plates. After thawing the plates, fluorescence was measured using the Cytofluor 4000 microplate reader (excitation 530 nm, emission 620 nm), giving a direct relationship to the total number of viable cells.
(§6) Growth inhibition was expressed as treated/control×100 (% T/C). For active compounds, IC70 values were estimated by plotting compound concentration versus cell viability.
(§7) In vitro evaluation of the test compounds for anticancer activity in a panel of human tumour cell lines in a monolayer proliferation assay was carried out as described in the general methods using a modified propidium iodide assay.

[3] = Solubility assay; assay type: physicochemical; conditions: aqueous buffer, kinetic from dmso stock; 2% DMSO in PBS pH 7.3; shaken up to six hours; maximum measurable 0.5 mM
Method: Solutions (25 mM) of the test compounds were prepared by dissolving 3-5 mg aliquots in the appropriate amount of DMSO.
Aliquots (0.01 mL) were added to 0.490 mL of pH 7.3 PBS in glass vials. For each time point, 3 PBS vials were prepared in amber glass vials. For the six hour time point triplicate aliquots in DMSO were also prepared.
The resulting 0.5 mM solutions were shaken for up to six hours, with vials removed for analysis at 1, 3 and 6 hours. Samples were analysed by HPLC (0.025 mL injections).
Solubility in 2% DMSO in PBS at each time point was determined by comparing total peak areas for each chromatogram with mean total peak area for chromatograms produced from the corresponding 6 hour DMSO solutions. (Mean total peak area in DMSO solutions was assumed to be equivalent to a 0.5 mM solution).

[4] = system: 1138L; experiment: monolayer proliferation assay (modified propidium iodide assay), 1138L; assay type: cell-based, human; conditions: 4 days exposure, median of duplicate experiments
Method: as §1, §2, §3, §4, §5, §6, §7

[5] = system: 251L; experiment: monolayer proliferation assay (modified propidium iodide assay), 251L; assay type: cell-based, human; conditions: 4 days exposure, median of duplicate experiments
Method: as §1, §2, §3, §4, §5, §6, §7

[6] = system: LNCAP; experiment: monolayer proliferation assay (modified propidium iodide assay), LNCAP; assay type: cell-based, human; conditions: 4 days exposure, median of duplicate experiments
Method: as §1, §2, §3, §4, §5, §6, §7

[7] = system: OVCAR3; experiment: monolayer proliferation assay (modified propidium iodide assay), OVCAR3; assay type: cell-based, human; conditions: 4 days exposure, median of duplicate experiments
Method: as §1, §2, §3, §4, §5, §6, §7

[8] = system: MCF7; experiment: monolayer proliferation assay (modified propidium iodide assay), MCF7; assay type: cell-based, human; conditions: 4 days exposure, median of duplicate experiments
Method: as §1, §2, §3, §4, §5, §6, §7

[9] = system: DU145; experiment: monolayer proliferation assay (modified propidium iodide assay), DU145; assay type: cell-based, human; conditions: 4 days exposure, median of duplicate experiments
Method: as §1, §2, §3, §4, §5, §6, §7

[10] = system: H460; experiment: monolayer proliferation assay (modified propidium iodide assay), H460; assay type: cell-based, human; conditions: 4 days exposure, median of duplicate experiments
Method: as §1, §2, §3, §4, §5, §6, §7

[11] = biological target: Yeast Hsp90 (Saccharomyces cerevisiae, UniProt P02829); experiment: Hsp90 binding, isothermal titration calorimetry
Method: Yeast Hsp90 was dialysed against 20 mM Tris pH 7.5 containing 1 mM EDTA and 5 mM NaCl and then diluted to 0.008 mM in the same buffer, but containing 2% DMSO. The test compounds were dissolved in 100% DMSO at a concentration of 50 mM and subsequently diluted to 0.1 mM in the same buffer as for Hsp90 with 2% DMSO. Heats of interaction were measured at 30° C. on a MSC system (Microcal), with a cell volume of 1.458 mL. 10 aliquots of 0.027 mL of 0.100 mM of each test compound were injected into 0.008 mM yeast Hsp90. Heats of dilution were determined in a separate experiment by injecting the test compound into buffer containing 2% DMSO, and the corrected data fitted using a nonlinear least square curve-fitting algorithm (Microcal Origin) with three floating variables: stoichiometry, binding constant and change in enthalpy of interaction.

[12] = system: SF268; experiment: monolayer proliferation assay (modified propidium iodide assay), SF268; assay type: cell-based, human; conditions: 4 days exposure, median of duplicate experiments
Method: as §1, §2, §3, §4, §5, §6, §7

[13] = system: Reverse transcriptase; conditions: Ono et al., 1982; cited from earlier work
[14] = biological target: terminal deoxynucleotidyl transferase (Homo sapiens, UniProt P04053); conditions: Ono et al., 1982; cited from earlier work
[15] = concentration of 14: 0 nM (standard agent alone)

Yeast Hsp90, sequence (P02829 whole entry): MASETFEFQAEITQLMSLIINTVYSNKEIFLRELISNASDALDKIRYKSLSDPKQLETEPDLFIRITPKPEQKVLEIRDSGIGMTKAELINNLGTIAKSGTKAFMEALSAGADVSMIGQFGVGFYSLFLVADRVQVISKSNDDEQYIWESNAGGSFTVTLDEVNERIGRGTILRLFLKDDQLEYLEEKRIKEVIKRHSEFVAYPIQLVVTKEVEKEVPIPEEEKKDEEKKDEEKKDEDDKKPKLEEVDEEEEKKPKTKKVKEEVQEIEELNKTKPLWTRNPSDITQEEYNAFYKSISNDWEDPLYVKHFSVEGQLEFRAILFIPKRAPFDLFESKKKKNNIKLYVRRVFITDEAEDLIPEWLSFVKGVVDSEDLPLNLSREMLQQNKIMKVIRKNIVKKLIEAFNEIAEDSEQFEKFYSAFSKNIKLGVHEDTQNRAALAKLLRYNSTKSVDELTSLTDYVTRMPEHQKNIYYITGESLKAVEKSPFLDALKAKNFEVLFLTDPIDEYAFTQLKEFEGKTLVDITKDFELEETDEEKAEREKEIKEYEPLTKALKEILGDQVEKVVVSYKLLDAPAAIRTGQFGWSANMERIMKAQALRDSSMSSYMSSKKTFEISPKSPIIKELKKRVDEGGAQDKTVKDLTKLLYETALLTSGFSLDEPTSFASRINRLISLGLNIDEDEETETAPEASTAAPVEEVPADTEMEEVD
terminal deoxynucleotidyl transferase, sequence (P04053 whole entry, species assumed): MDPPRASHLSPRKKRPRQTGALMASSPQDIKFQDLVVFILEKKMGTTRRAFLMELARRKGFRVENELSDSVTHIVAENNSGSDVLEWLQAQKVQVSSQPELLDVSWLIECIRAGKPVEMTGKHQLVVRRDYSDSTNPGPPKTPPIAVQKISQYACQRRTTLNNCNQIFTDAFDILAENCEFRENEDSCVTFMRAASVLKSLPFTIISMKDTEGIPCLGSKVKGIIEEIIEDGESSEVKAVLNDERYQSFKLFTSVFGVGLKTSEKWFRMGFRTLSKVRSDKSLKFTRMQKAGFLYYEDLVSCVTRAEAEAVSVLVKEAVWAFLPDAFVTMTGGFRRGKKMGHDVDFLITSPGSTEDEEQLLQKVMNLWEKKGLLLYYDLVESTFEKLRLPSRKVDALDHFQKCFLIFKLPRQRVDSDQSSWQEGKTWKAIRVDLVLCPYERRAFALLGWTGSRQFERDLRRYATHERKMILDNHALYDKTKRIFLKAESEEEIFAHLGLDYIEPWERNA

SMILES	IC70 of standard agent ([1]; combined with 14 at 80 nM)	IC70 of standard agent ([1]; combined with 14 at 120 nM)	IC70 of standard agent ([1]; combined with 14 at 160 nM)	IC70 of standard agent [1, 15]	Test/Control (%) at drug concentration ([2]; 1 μg/mL)	Test/Control (%) at drug concentration ([2]; 10 μg/mL)	solubility [3]	Test/Control (%) at drug concentration ([4]; 1 μg/mL)	Test/Control (%) at drug concentration ([4]; 10 μg/mL)	Test/Control (%) at drug concentration ([5]; 1 μg/mL)	Test/Control (%) at drug concentration ([5]; 10 μg/mL)	Test/Control (%) at drug concentration ([6]; 1 μg/mL)	Test/Control (%) at drug concentration ([6]; 10 μg/mL)	Test/Control (%) at drug concentration ([7]; 1 μg/mL)	Test/Control (%) at drug concentration ([7]; 10 μg/mL)	Test/Control (%) at drug concentration ([8]; 1 μg/mL)	Test/Control (%) at drug concentration ([8]; 10 μg/mL)	Test/Control (%) at drug concentration ([9]; 1 μg/mL)	Test/Control (%) at drug concentration ([9]; 10 μg/mL)	Test/Control (%) at drug concentration ([10]; 1 μg/mL)	other results
CC[C@]1(O)C[C@@H]2CN(CCc3c([nH]c4ccccc34)[C@@](C(=O)OC)(c3cc4c(cc3OC)N(C)[C@H]3[C@@](O)(C(N)=O)[C@H](O)[C@]5(CC)C=CCN6CC[C@]43[C@@H]65)C2)C1 [vindesine]	0.8 ng/mL	0.6 ng/mL	0.1 ng/mL	0.9 ng/mL	–	–	–	–	–	–	–	–	–	–	–	–	–	–	–	–	–
CO[C@H]1C[C@H](C)[C@@H](O)c2cc(O)cc(c2)NC(=O)/C(C)=C/CC[C@H](C)[C@@H](OC(N)=O)/C(C)=C/[C@H](C)[C@H]1O [Compound 15, 7-O-carbamoyl-15-hydroxypre-macbecin]	–	–	–	–	75%	18%	≥ 500 µM	101%	25%	86%	29%	58%	16%	100%	41%	99%	19%	99%	18%	87%	Test/Control (%) at drug concentration ([10]; 10 μg/mL): 23%; pKd ([11]; yeast Hsp90, ITC at 30° C., 2% DMSO, read-out: Kd values for Hsp90 binding): 8.22; Test/Control (%) at drug concentration ([12]; 1 μg/mL): 95%; Test/Control (%) at drug concentration ([12]; 10 μg/mL): 27%
CO[C@H]1[C@@H](OC)C[C@H](C)[C@@H](OC)C2=CC(=O)C=C(NC(=O)/C(C)=C/C=C\[C@H](C)[C@@H](OC(N)=O)/C(C)=C/[C@@H]1C)C2=O [macbecin]	–	–	–	–	16%	13%	81 µM (≈ 45.3 µg/mL)	71%	31%	58%	44%	34%	32%	54%	11%	42%	19%	13%	5%	62%	Reverse transcriptase activity inhibition [13]: not inhibited; terminal deoxynucleotidyl transferase activity inhibition [14]: not inhibited; Test/Control (%) at drug concentration ([10]; 10 μg/mL): 25%; pKd [11]: 6.62; Test/Control (%) at drug concentration ([12]; 1 μg/mL): 40%; Test/Control (%) at drug concentration ([12]; 10 μg/mL): 6%
COC1=C2C[C@@H](C)C[C@H](OC)[C@H](O)[C@@H](C)/C=C(\C)[C@H](OC(N)=O)[C@@H](OC)/C=C\C=C(/C)C(=O)NC(=CC1=O)C2=O [Geldanamycin, geldanamycin]	–	–	–	–	–	–	1.7 µM (≈ 0.953 µg/mL)	–	–	–	–	–	–	–	–	–	–	–	–	–	–
O=NN(CCCl)C(=O)NC1CCCCC1 [CCNU, Cyclohexylchloroethylnitrosurea]	11300 ng/mL	9340 ng/mL	1630 ng/mL	19740 ng/mL	–	–	–	–	–	–	–	–	–	–	–	–	–	–	–	–	–
